According to PMC6147116 (Journal of Enzyme Inhibition and Medicinal Chemistry, 2018):
Like-named read-outs stand apart in the source and are kept apart here.

Key:
human aromatase = biological target: T1, human aromatase (Homo sapiens, UniProt P11511); test: Aromatase inhibition, in vitro radiosubstrate incubation (testosterone to E2 conversion), human placental microsomes; assay type: biochemical; conditions: for remaining activity at 10 µM: read-out: Arom Rel.conv. ± SD
T1 construct: from tissue; host or cells: human term placenta, microsomal fraction
T1 sequence (P11511 1-503): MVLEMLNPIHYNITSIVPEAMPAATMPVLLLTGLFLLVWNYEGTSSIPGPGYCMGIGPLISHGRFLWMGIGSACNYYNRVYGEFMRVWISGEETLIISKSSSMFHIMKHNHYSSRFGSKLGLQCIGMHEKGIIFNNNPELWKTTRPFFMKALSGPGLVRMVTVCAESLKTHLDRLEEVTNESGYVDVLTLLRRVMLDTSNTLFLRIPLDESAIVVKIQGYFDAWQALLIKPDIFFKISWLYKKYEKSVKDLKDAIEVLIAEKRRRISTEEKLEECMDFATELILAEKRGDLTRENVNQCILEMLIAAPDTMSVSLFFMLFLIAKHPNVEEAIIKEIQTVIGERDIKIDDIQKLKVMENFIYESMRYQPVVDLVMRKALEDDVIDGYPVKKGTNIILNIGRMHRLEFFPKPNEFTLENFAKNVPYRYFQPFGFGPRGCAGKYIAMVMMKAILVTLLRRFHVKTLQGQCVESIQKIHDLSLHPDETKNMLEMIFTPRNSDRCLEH
Experimental: (§1) Enzyme inhibition studies were performed by in vitro radiosubstrate incubations using human term placenta cytosol and microsomas as enzyme sources. […] Relative conversions compared to non-inhibited controls (100%) were measured in the presence of 10 µM concentration of the test compound. […] Mechanistic and kinetic investigations were performed and inhibitory constants (Ki) were determined for selected compounds.
(§2) Enzymatic incubations were carried out in the HEPES buffer medium at a final volume of 200
(§3) µl. The substrate was added to the incubate in 20 µl of a 25 v/v% propylene glycol in HEPES buffer solution, whereas test compounds were applied in 10 µl of dimethyl sulfoxide solution.
Incubations were performed at 37 °C and terminated by cooling and the addition of organic solvents of the subsequent extraction procedure. Control samples with no inhibitor and blank samples were incubated simultaneously. The radioactivity of the products formed was measured by means of liquid scintillation counting (LSC) and taken as indicator of the […]
In the aromatase assays the microsoma suspension was incubated with appropriate concentration of unlabelled testosterone (2) substrate spiked with [1,2,6,7-3H]testosterone tracer, and in the presence of 0.1 mM NADPH cofactor excess. (In this case, solution of the substrate was prepared with acetonitrile instead of propylene glycol.) Incubation time was 40 min. The incubation mixture was extracted with toluene, then the toluene phase was drained and washed with HEPES buffer. Aromatase products containing phenolic hydroxy group were extracted with 1.2 M sodium hydroxide solution from the toluene extract and the alkaline phase was measured in the LSC. […]
was extracted with toluene. […]
(§4) In the general procedure, incubations were performed as described. Concentrations of the substrates were 1.0 µM, and the test compounds were applied at 10 µM final concentration in the incubate. Relative conversions compared to non-inhibited controls (100%) were determined. The assays were performed in triplicate, and the mean value and the standard deviation (SD) were calculated. […]
(§5) these cases, conversions were measured at 10–15 different concentrations in the appropriate interval between 0.001–50 µM. IC50 results were calculated by using unweighted iterative least squares logistic curve fitting by means of the “absolute IC50 calculation“ function of the GraphPad Prism 4.0 software (GraphPad Software, Inc., San Diego, CA, USA).
Kinetic analyses were performed via measurement of the enzymatic transformation using different fixed substrate concentrations and varied inhibitor concentrations. The Dixon’s linear transformation (1/velocity vs. inhibitor concentration) was applied for evaluation and the inhibition constant (Ki) was determined from abscissa of intersection of the lines of different substrate concentrations. Mechanism of binding was identified according to the […]

steroid sulfatase (STS) = biological target: T2, steroid sulfatase (STS) (Homo sapiens, UniProt P08842); test: STS inhibition, in vitro radiosubstrate incubation (release of E1 from E1S), human placental microsomes; Dixon kinetic analysis; assay type: biochemical; conditions: for remaining activity at 10 µM: read-out: STS Rel.conv. ± SD
T2 construct: from tissue; host or cells: human term placenta, microsomal fraction
T2 sequence (P08842 22-583): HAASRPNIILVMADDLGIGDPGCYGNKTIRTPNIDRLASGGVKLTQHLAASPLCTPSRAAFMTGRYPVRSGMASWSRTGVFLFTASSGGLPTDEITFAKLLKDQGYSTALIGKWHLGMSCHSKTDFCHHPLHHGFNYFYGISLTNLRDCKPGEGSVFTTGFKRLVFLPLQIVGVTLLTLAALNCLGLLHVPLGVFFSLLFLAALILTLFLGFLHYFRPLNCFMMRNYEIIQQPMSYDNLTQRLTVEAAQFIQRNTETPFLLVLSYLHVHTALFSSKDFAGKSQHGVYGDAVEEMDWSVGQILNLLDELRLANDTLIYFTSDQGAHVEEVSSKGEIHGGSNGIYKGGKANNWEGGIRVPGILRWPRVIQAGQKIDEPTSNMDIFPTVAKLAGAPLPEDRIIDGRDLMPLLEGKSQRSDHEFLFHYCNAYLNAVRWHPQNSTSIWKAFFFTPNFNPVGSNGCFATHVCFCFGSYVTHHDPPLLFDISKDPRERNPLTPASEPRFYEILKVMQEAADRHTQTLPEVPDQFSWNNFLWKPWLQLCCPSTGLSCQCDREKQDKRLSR
Experimental: as §1
Kinetic analyses of selected compounds 7a and 16c were performed by measurement of enzyme activities using different fixed substrate concentrations and varied inhibitor concentrations.
as §2, §3
(§6) Incubations were performed at 37 °C and terminated by cooling and the addition of organic solvents of the subsequent extraction procedure. Control samples with no inhibitor and blank samples were incubated simultaneously. […]
The incubation time was 2.5 min. […]
as §4, §5
(§7) Kinetic analyses were performed via measurement of the enzymatic transformation using different fixed substrate concentrations and varied inhibitor concentrations. The Dixon’s linear transformation (1/velocity vs. inhibitor concentration) was applied for evaluation and the inhibition constant (Ki) was determined from abscissa of intersection of the lines of different substrate concentrations. Mechanism of binding was identified according to the Dixon’s graphs and the secondary plot of slopes of the Dixon’s lines vs. 1/substrate […]
The inhibitor compounds were preincubated with the appropriate placenta fraction in a volume of 4.0 µl at 37 °C for various time periods (2.5-40 min). Following this procedure, […]

[1] = biological target: T3, 17β-hydroxysteroid dehydrogenase type 1 (17β-HSD1) (Homo sapiens, UniProt P14061); test: 17β-HSD1 inhibition, in vitro radiosubstrate incubation (E1 to E2), human placental cytosol; Dixon kinetic analysis; assay type: biochemical; conditions: for IC50: E1 substrate 1.0 µM, NADPH excess; for 17β-HSD1 Rel.conv. ± SD: 10 µM test compound, non-inhibited control 100%, mean ± SD, n = 3
T3 sequence (P14061 1-328): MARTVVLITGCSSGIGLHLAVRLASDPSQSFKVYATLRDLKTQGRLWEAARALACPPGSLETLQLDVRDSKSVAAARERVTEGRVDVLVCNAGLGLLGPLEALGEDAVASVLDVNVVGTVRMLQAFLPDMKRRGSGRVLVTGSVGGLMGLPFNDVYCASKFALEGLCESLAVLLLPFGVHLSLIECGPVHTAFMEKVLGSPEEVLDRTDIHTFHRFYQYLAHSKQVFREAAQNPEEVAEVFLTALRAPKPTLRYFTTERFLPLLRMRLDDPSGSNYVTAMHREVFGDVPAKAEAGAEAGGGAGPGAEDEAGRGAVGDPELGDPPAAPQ
Experimental: as §1
Inhibitors that bind to the steroid site of 17β-HSD1 can bind to both the free enzyme and the binary enzyme–cofactor complex by random kinetic mechanism.
as §2, §3, §6
The incubation time was 2.5 min. The product 17β-estradiol (E2, 5) was extracted with ethyl acetate and isolated by a TLC method (details are published in our earlier reference).
as §4, §5, §7
The inhibitor compounds were preincubated with the appropriate placenta fraction in a volume of 4.0 µl at 37 °C for various time periods (2.5-40 min). Following this procedure, samples were diluted with the incubation medium to 50-fold. Enzyme activity measurements

aromatase enzyme = biological target: aromatase enzyme; set-up: method as in PMID 16039845; conditions: cited from earlier work
[2] = 10 µM test compound, non-inhibited control 100%, mean ± SD, n = 3
[3] = E1S substrate 1.0 µM, read-out: STS IC50 ± SD

Compound | remaining activity at 10 µM (human aromatase; [2]) [%] | IC50 (steroid sulfatase (STS); [3]) [µM] | IC50 ([1]; read-out: 17β-HSD1 IC50 ± SD) [µM] | other results
C[C@@]12CC[C@@H]3c4cc(Cl)c(O)c(Cl)c4CC[C@H]3[C@@H]1CCC2=O [12c] | – | – | – | remaining activity at 10 µM (human aromatase): 101 ± 4%; remaining activity at 10 µM (steroid sulfatase (STS)): 70 ± 3%; IC50 ([1]; 17β-HSD1 IC50 ± SD): 2.2 ± 0.6 µM
C[C@]12CCC[C@H]1[C@@H]1CCc3cc(O)c(I)cc3[C@H]1CC2 [14a] | 89 ± 9 | 3.9 ± 1.6 | 2.9 ± 1.6 | –
C[C@]12CCC[C@H]1[C@@H]1CCc3cc(O)c(Br)cc3[C@H]1CC2 [14b] | 97 ± 5 | 4.1 ± 1.3 | 1.3 ± 0.8 | –
C[C@]12CCC[C@H]1[C@@H]1CCc3cc(O)c(Cl)cc3[C@H]1CC2 [14c] | 88 ± 10 | 7 ± 1.9 | 2.6 ± 1.3 | –
C[C@]12CCC[C@H]1[C@@H]1CCc3c(ccc(O)c3I)[C@H]1CC2 [15a] | 92 ± 7 | 2.7 ± 1.3 | – | 17β-HSD1 Rel.conv. ± SD [1]: 57 ± 9%
C[C@]12CCC[C@H]1[C@@H]1CCc3c(ccc(O)c3Br)[C@H]1CC2 [15b] | 90 ± 8 | 3.7 ± 1.2 | 11 ± 4 | 17β-HSD1 Rel.conv. ± SD [1]: 49 ± 12%
C[C@]12CCC[C@H]1[C@@H]1CCc3c(ccc(O)c3Cl)[C@H]1CC2 [15c] | 89 ± 1 | 6.3 ± 1.8 | 4.5 ± 2 | –
C[C@]12CCC[C@H]1[C@@H]1CCc3c(cc(I)c(O)c3I)[C@H]1CC2 [16a] | 94 ± 2 | – | – | remaining activity at 10 µM (steroid sulfatase (STS); [2]): 59 ± 13%; 17β-HSD1 Rel.conv. ± SD [1]: 61 ± 7%
C[C@]12CCC[C@H]1[C@@H]1CCc3c(cc(Br)c(O)c3Br)[C@H]1CC2 [16b] | – | – | – | remaining activity at 10 µM (human aromatase): 82 ± 6%; IC50 (steroid sulfatase (STS)): 7.5 ± 2 µM; IC50 ([1]; 17β-HSD1 IC50 ± SD): 4.1 ± 2.5 µM
C[C@]12CC[C@@H]3c4ccc(O)cc4CC[C@H]3[C@@H]1CCC2=O [E1 (4), estrone, reference compound] | 78 | – | – | IC50 (human aromatase): > 10 µM; IC50 (steroid sulfatase (STS)): 24 ± 10 µM; Ki (aromatase enzyme): 2.5 µM
C[C@@]12CC[C@@H]3c4ccc(O)cc4CC[C@H]3[C@@H]1CCC2=O [compound 9, 13α-Estrone] | 85 ± 13 | – | – | remaining activity at 10 µM (steroid sulfatase (STS); [2]): 96 ± 1%
C[C@]12CCC[C@H]1[C@@H]1CCc3cc(O)ccc3[C@H]1CC2 [compound 13, 17-deoxy-13α-estrone] | 95 ± 12 | – | 1.1 ± 0.33 | remaining activity at 10 µM (steroid sulfatase (STS); [2]): 76 ± 5%; Ki ([1]; from Dixon plot, cofactor excess): 2 µM
